Results from patent US5602153A, “Method of using 1-arylheteroarylalkyl substituted-1H-1,2,4-triazole compounds for treatment of a giaucoma disorder” (G.D. Searle & Co., priority 1993, dated 1997).
Like-named read-outs stand apart in the source and are kept apart here.

Assays:
pressor response to AII = assay: Assay C: In Vivo Intragastric Pressor Assay Response for AII Antagonists; design: species or system rat (male Sprague-Dawley); conditions: po; 3 mg/kg i.g., rat, AII 30 ng/kg bolus
Procedure: Assay C: In Vivo Intragastric Pressor Assay Response for AII Antagonists of the Invention
Male Sprague-Dawley rats weighing 225-300 grams were anesthetized with methohexital (30 mg/kg, i.p.) and catheters were implanted into the femoral artery and vein. The catheters were tunneled subcutaneously to exit dorsally, posterior to the head and between the scapulae. The catheters were filled with heparin (1000 units/ml of saline). The rats were returned to their cage and allowed regular rat chow and water ad libitum. After full recovery from surgery (3-4 days), rats were placed in Lucite holders and the arterial line was connected to a pressure transducer. Arterial pressure was recorded on a Gould polygraph (mmHg). Angiotensin II was administered as a 30 ng/kg bolus via the venous catheter delivered in a 50 μl volume with a 0.2 ml saline flush. The pressor response in mmHg was measured by the difference from pre-injectionarterial pressure to the maximum pressure achieved. The AII injection was repeated every 10 minutes until three consecutive injections yielded responses within 4 mmHg of each other. These three responses were then averaged and represented the control response to AII. The test compound was suspended in 0.5% methylcellulose in water and was administered by gavage. The volume administered was 2 ml/kg body weight. The standard dose was 3 mg/kg. Angiotensin II bolus injections were given at 30, 45, 60, 75, 120, 150, and 180 minutes after gavage. The pressor response to AII was measured at each time point. The rats were then returned to their cage for future testing. A minimum of 3 days was allowed between tests. Percent inhibition was calculated for each time point following gavage by the following formula: [(Control Response-Response at time point)/Control Response]×100.

rabbit aortic rings = molecular target: T1, rabbit aortic rings (Oryctolagus cuniculus, UniProt P34976); assay: Assay B: In Vitro Vascular Smooth Muscle-Response for AII (antagonist activity in rabbit aortic rings); assay type: cell-based, rabbit (male New Zealand white); conditions: antagonist 10^-5 M for 5 min, AII challenge
T1 construct: The thoracic aorta was removed, cleaned of adherent fat and connective tissue; from tissue; host or cells: thoracic aorta rings, endothelium removed, male New Zealand white rabbit
T1 sequence (P34976 1-359): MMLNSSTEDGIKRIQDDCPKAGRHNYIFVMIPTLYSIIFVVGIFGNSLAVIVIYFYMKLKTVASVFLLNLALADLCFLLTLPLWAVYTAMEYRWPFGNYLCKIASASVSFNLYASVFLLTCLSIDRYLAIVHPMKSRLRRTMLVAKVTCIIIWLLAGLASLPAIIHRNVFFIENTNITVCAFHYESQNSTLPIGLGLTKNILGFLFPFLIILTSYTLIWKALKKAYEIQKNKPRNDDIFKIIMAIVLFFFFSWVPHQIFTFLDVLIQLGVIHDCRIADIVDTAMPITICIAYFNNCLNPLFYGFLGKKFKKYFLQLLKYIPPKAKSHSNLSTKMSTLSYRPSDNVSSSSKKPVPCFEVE
Procedure: Assay B: In Vitro Vascular Smooth Muscle-Response for AII The compounds of the invention were tested for antagonist activity in rabbit aortic rings. Male New Zealand white rabbits (2-2.5 kg) were sacrificed using an overdose of pentobarbital and exsanguinated via the carotid arteries. The thoracic aorta was removed, cleaned of adherent fat and connective tissue and then cut into 3-mm ring segments. The endothelium was removed from the rings by gently sliding a rolled-up piece of filter paper into the vessel lumen. The rings were then mounted in a water-jacketed tissue bath, maintained at 37° C., between moveable and fixed ends of a stainless steel wire with the moveable end attached to an FT03 Grass transducer coupled to a Model 7D Grass Polygraph for recording isometric force responses. The bath was filled with 20 ml of oxygenated (95% oxygen/5% carbon dioxide) Krebs solution of the following composition (mM): 130 NaCl, 15 NaHCO3, 15 KCl, 1.2 NaH2 PO4, 1.2 MgSO4, 2.5 CaCl2, and 11.4 glucose. The preparations were equilibrated for one hour before approximately one gram of passive tension was placed on the rings. Angiotensin II concentration-response curves were then recorded (3×10^-10 to 1×10^-5 M). Each concentration of AII was allowed to elicit its maximal contraction, and then AII was washed out repeatedly for 30 minutes before rechallenging with a higher concentration of AII. Aorta rings were exposed to the test antagonist at 10^-5 M for 5 minutes before challenging with AII. Adjacent segments of the same aorta ring were used for all concentration-response curves in the presence or absence of the test antagonist. The effectiveness of the test compound was expressed in terms of pA2 values and were calculated according to H.O. Schild [Br. J. Pharmacol. Chemother., 2, 189-206 (1947)]. The pA2 value is the concentration of the antagonist which increases the EC50 value for AII by a factor of two. Each test antagonist was evaluated in aorta rings from two rabbits.

[1] = first of two rabbits, read-out: pA2 (first value) (converted)
[2] = second of two rabbits, read-out: pA2 (converted)

| Kb (rabbit aortic rings; [1]) | Kb (rabbit aortic rings; [2]) | Compound | inhibition in vivo at 3 mg/kg (pressor response to AII) |
| --- | --- | --- | --- |
| 13.2 nM | 9.77 nM | CCCCc1nc(CCCC)n(Cc2ccc(-c3ccccc3-c3nnn[nH]3)cn2)n1 [Example 1, 5-[2-[6-[(3,5-dibutyl-1H-1,2,4-triazol-1-yl)methyl]-3-pyridinyl]phenyl]-1H-tetrazole] | 20% |
| 2.69 nM | 5.75 nM | CCCCc1nc(CCCC)n(Cc2ccc(-c3ccccc3-c3nnn[nH]3)nc2)n1 [Example 3, 5-[2-[5-[(3,5-dibutyl-1H-1,2,4-triazol-1-yl)methyl]-2-pyridinyl]phenyl]-1H-tetrazole] | 40% |
